Data as given in patent US12378287B2 (priority 2019, dated 2025).
pKd: −log10 of the molar value.

How the values were obtained:
[1] = molecular target: GII.17 VLP; assay type: binding, norovirus; settings: 100 μM peptide on SA chip; for pKd: GII.17 VLP 1, 0.1, 0.01, 0.001 mg/mL, KD calculated from ka and kd; for ka / kd: GII.17 VLP; for ka: association 90 sec; for kd: dissociation 60 sec
Procedure: (§1) The apparatus used was BLItz™ (manufactured by ForteBio). The tip of SA chip (manufactured by ForteBio) was kept in contact with purified water for 1 minute for hydration and was then kept in contact with a 1% BSA aqueous solution for 1 hour for blocking. The SA chip subjected to blocking treatment was set to the measuring unit of the BLItz™ main body, and measurement was performed according to the program shown in Table 16. The peptides of SEQ ID NOs: 103, 167, 205, 263, 283, 288, and 302 were used, and the concentration was adjusted to 100 μM. The concentrations of each of the GII.3 and GII.17 VLPs were adjusted to 1, 0.1, 0.01, and 0.001 mg/mL. The measurement data were analyzed using the attached software, and the KD value was calculated based on the Ka and Kd values.

[2] = molecular target: GII.3 VLP; assay type: binding, norovirus; settings: 100 μM peptide on SA chip; for pKd: GII.3 VLP 1, 0.1, 0.01, 0.001 mg/mL, KD calculated from ka and kd; for ka / kd: GII.3 VLP; for ka: association 90 sec; for kd: dissociation 60 sec
Procedure: as §1

Sequence | pKd [1] | ka [1] [M⁻¹ s⁻¹] | kd [1] [s⁻¹] | pKd [2] | ka [2] [M⁻¹ s⁻¹] | kd [2] [s⁻¹]
ANYRWSRSIK [No.263] | 7.72 | 140000 | 0.00865 | 7.24 | 851000 | 0.049
CKARSARGVS [No.288] | 7.92 | 620000 | 0.00747 | 8.16 | 2.09e+06 | 0.0143
FVWRRRAGLY [No.167] | 9.16 | 1.59e+06 | 0.00111 | 8.86 | 3.14e+06 | 0.00435
FVWSRRTGLY [No.205] | 6.96 | 169000 | 0.0184 | 7.50 | 1.03e+06 | 0.001
RFLVPVVKVM [No.103] | 8.09 | 1.38e+06 | 0.0112 | 8.09 | 2.1e+06 | 0.017
RSMSLHVSMT [No.283] | 8.86 | 994000 | 0.000138 | 9.04 | 7.86e+06 | 0.00715
VWWGRRISRF [No.302] | 7.55 | 2.28e+06 | 0.0648 |  |  | 
